Data taken from ChEMBL document CHEMBL1201862, “PubChem BioAssay data set” (2004).
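Dose response: 5 concentrations. Exposure: 48 h. Format: 96-well plates. Endpoint: linear interpolation; highest concentration if not reached. Here, GI50 denotes the concentration required for 50% inhibition of growth.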 Activity calls are given as the source filed them. Cut-off read from the data, not from the text of the source: active = GI50 up to about 1.1 µM and inactive = higher.

Legend:
Experiment in all cases: DTP human tumour cell line panel, 48 h
A498 = test system: A498
CCRF-CEM = test system: CCRF-CEM
COLO 205 = test system: COLO 205
HCT-116 = test system: HCT-116
HOP-92 = test system: HOP-92
LOX IMVI = test system: LOX IMVI
NCI-H460 = test system: NCI-H460
OVCAR-3 = test system: OVCAR-3
OVCAR-4 = test system: OVCAR-4
OVCAR-5 = test system: OVCAR-5
OVCAR-8 = test system: OVCAR-8
SN12C = test system: SN12C
SR = test system: SR
U-251 = test system: U-251
M14 = test system: M14
MCF7 = test system: MCF7
NCI/ADR-RES = test system: NCI/ADR-RES
PC-3 = test system: PC-3

SMILES | GI50 (A498) | GI50 (CCRF-CEM) | GI50 (COLO 205) | GI50 (HCT-116) | GI50 (HOP-92) | GI50 (LOX IMVI) | GI50 (NCI-H460) | GI50 (OVCAR-3) | GI50 (OVCAR-4) | GI50 (OVCAR-5) | GI50 (OVCAR-8) | GI50 (SN12C) | GI50 (SR) | GI50 (U-251) | GI50 (M14) | GI50 (MCF7) | GI50 (NCI/ADR-RES) | GI50 (PC-3)
CC1(C)C(=O)/C=C\C(=O)C(C)(C)C2=CC=C(O2)C(C)(C)C(=O)/C=C\C(=O)C(C)(C)C2=CC=C1O2 | > 100 µM (inactive) | > 100 µM (inactive) | > 100 µM (inactive) | > 100 µM (inactive) | > 100 µM (inactive) | > 100 µM (inactive) | > 100 µM (inactive) | > 100 µM (inactive) | > 100 µM (inactive) | > 100 µM (inactive) | > 100 µM (inactive) | > 100 µM (inactive) | > 100 µM (inactive) | > 100 µM (inactive) |  |  |  | 
S=C(c1c[nH]c2ccccc12)N1CCN(Cc2ccccc2)CC1 | 19.2 µM (inactive) | 27.2 µM (inactive) | 16.5 µM (inactive) | 15.7 µM (inactive) |  | 15.7 µM (inactive) | 25.2 µM (inactive) | 14.4 µM (inactive) |  | 16.2 µM (inactive) | 19.1 µM (inactive) | 16.5 µM (inactive) | 20.2 µM (inactive) | 19.5 µM (inactive) | 14 µM (inactive) | 22.2 µM (inactive) | 17 µM (inactive) | 15.7 µM (inactive)
CCCCN(CCCC)CCCCNc1c(C)cnc2cc(Cl)ccc12 | 23.6 µM (inactive) | 49.1 µM (inactive) | 23.3 µM (inactive) | 11.1 µM (inactive) | 13.5 µM (inactive) | 14.2 µM (inactive) | 30.9 µM (inactive) | 30.2 µM (inactive) | 49.2 µM (inactive) | 2.79 µM (inactive) | 49.4 µM (inactive) | 30.6 µM (inactive) |  | 28.6 µM (inactive) | 1.94 µM (inactive) |  |  | 
CC12CCC(C(=O)O1)C(C)(C)O2 (centres undefined) | > 100 µM (inactive) | > 100 µM (inactive) |  | > 100 µM (inactive) | > 100 µM (inactive) | > 100 µM (inactive) | > 100 µM (inactive) | > 100 µM (inactive) | > 100 µM (inactive) | > 100 µM (inactive) | > 100 µM (inactive) | > 100 µM (inactive) | > 100 µM (inactive) | > 100 µM (inactive) | > 100 µM (inactive) | > 100 µM (inactive) | > 100 µM (inactive) | > 100 µM (inactive)
O=[N+]([O-])/C=C/c1cn(CCCCCCCCCCCCn2cc(/C=C/[N+](=O)[O-])c3ccccc32)c2ccccc12 | > 100 µM (inactive) | > 100 µM (inactive) | > 100 µM (inactive) | > 100 µM (inactive) | > 100 µM (inactive) | > 100 µM (inactive) | > 100 µM (inactive) | > 100 µM (inactive) | > 100 µM (inactive) | > 100 µM (inactive) | > 100 µM (inactive) | > 100 µM (inactive) | > 100 µM (inactive) | > 100 µM (inactive) | > 100 µM (inactive) | > 100 µM (inactive) | > 100 µM (inactive) | > 100 µM (inactive)
Cc1ccc(C2CC(c3ccco3)=NN2c2ccccc2)o1 (centres undefined) |  | > 100 µM (inactive) | > 100 µM (inactive) | > 100 µM (inactive) |  | > 100 µM (inactive) | > 100 µM (inactive) | > 100 µM (inactive) | > 100 µM (inactive) | > 100 µM (inactive) | > 100 µM (inactive) | > 100 µM (inactive) | > 100 µM (inactive) | > 100 µM (inactive) | > 100 µM (inactive) |  |  | 
N#CCCN(CCC#N)c1ccc(/C=C2\N=C(CN3C(=O)c4ccccc4C3=O)OC2=O)cc1 | > 100 µM (inactive) |  |  | > 100 µM (inactive) |  | > 100 µM (inactive) | > 100 µM (inactive) | > 100 µM (inactive) | > 100 µM (inactive) | > 100 µM (inactive) | > 100 µM (inactive) | > 100 µM (inactive) | > 100 µM (inactive) | > 100 µM (inactive) | > 100 µM (inactive) |  |  | 
C/C(=N/NC(=S)N1CCCCC1)c1cccc(/C(C)=N\NC(=S)N2CCCCC2)n1 | 1.69 µM (inactive) | 3 µM (inactive) | 2.43 µM (inactive) | 1.74 µM (inactive) |  | 2.07 µM (inactive) | 1.89 µM (inactive) | 2.21 µM (inactive) |  | 0.423 µM (active) | 1.67 µM (inactive) | 1.93 µM (inactive) | 2.07 µM (inactive) | 2.04 µM (inactive) | 1.94 µM (inactive) | 1.86 µM (inactive) | 2.06 µM (inactive) | 1.65 µM (inactive)
Cn1c2ccccc2c(=O)c2c([N+](=O)[O-])ccc(NCCN)c21 | 16.5 µM (inactive) |  | 5.36 µM (inactive) | 3.73 µM (inactive) | 6.76 µM (inactive) |  | 6.92 µM (inactive) | 13.8 µM (inactive) | 12.2 µM (inactive) | 13.8 µM (inactive) | 7.19 µM (inactive) | 5.14 µM (inactive) | 20.1 µM (inactive) | 12.8 µM (inactive) | 14 µM (inactive) |  |  | 
CC(C)(C)CNC(=O)NCn1cc(-c2ccccc2)nn1 |  | > 100 µM (inactive) | > 100 µM (inactive) | > 100 µM (inactive) | > 100 µM (inactive) | > 100 µM (inactive) | > 100 µM (inactive) |  | > 10 µM (inactive) | > 100 µM (inactive) | > 100 µM (inactive) | > 100 µM (inactive) | > 100 µM (inactive) | > 100 µM (inactive) | > 100 µM (inactive) | > 100 µM (inactive) | > 100 µM (inactive) | > 100 µM (inactive)
COC(=O)c1cc(O)ccc1O [METHYL 2,5-DIHYDROXYBENZOATE] |  | > 100 µM (inactive) | > 100 µM (inactive) |  | > 100 µM (inactive) | > 100 µM (inactive) | > 100 µM (inactive) | > 100 µM (inactive) | > 100 µM (inactive) | > 100 µM (inactive) | > 100 µM (inactive) | > 100 µM (inactive) |  | > 100 µM (inactive) | > 100 µM (inactive) |  |  | 
C=C[C@@H]1OC(=O)O[C@H]1CO | > 100 µM (inactive) | > 100 µM (inactive) | > 100 µM (inactive) | > 100 µM (inactive) |  | > 100 µM (inactive) |  | > 100 µM (inactive) | > 100 µM (inactive) | > 100 µM (inactive) | > 100 µM (inactive) | > 100 µM (inactive) | > 100 µM (inactive) | > 100 µM (inactive) | > 100 µM (inactive) | > 100 µM (inactive) | > 100 µM (inactive) | > 100 µM (inactive)
O=c1[nH]n(Cc2ccccc2Cl)c2ccccc12 | > 100 µM (inactive) | > 100 µM (inactive) | > 100 µM (inactive) | > 100 µM (inactive) | 62.4 µM (inactive) | > 100 µM (inactive) | > 100 µM (inactive) | 73.1 µM (inactive) | > 100 µM (inactive) | > 100 µM (inactive) | > 100 µM (inactive) | > 100 µM (inactive) | > 100 µM (inactive) | > 100 µM (inactive) | > 100 µM (inactive) |  | > 100 µM (inactive) | > 100 µM (inactive)
